Source: paper PMC7570844, “Skin Damages—Structure Activity Relationship of Benzimidazole Derivatives Bearing a 5-Membered Ring System” (Molecules, 2020)
Where two headings read alike, the source gives them in different places.

How the values were obtained:
Epidermophyton floccosum = test: Antidermatophyte plaque growth inhibition; assay type: cell-based; conditions: read-out: Percent growth inhibition
[1] = Ferric reducing antioxidant power (FRAP) test; conditions: mean ± SEM
Microsporum canis = test: Antidermatophyte plaque growth inhibition; assay type: cell-based; conditions: read-out: Percent growth inhibition
[2] = DPPH radical scavenging test; conditions: tested at 1 mg/mL; mean ± SEM
Microsporum gypseum = test: Antidermatophyte plaque growth inhibition; assay type: cell-based; conditions: Nannizzia gypsea, read-out: Percent growth inhibition
[3] = UV filtering parameters of cosmetic formulation on PMMA plates (modified Diffey-Robson); assay type: physicochemical
[4] = UV filtering parameters of compounds in solution (MeOH, 290-400 nm)
[5] = tested on: M. gypseum, M. canis, T. mentagrophytes, T. tonsurans and E. floccosum; test: Antidermatophyte activity, all five dermatophytes taken together; assay type: cell-based; conditions: 100 µg/mL
Trichophyton tonsurans = test: Antidermatophyte plaque growth inhibition; assay type: cell-based; conditions: read-out: Percent growth inhibition
[6] = tested on: Trichophyton mentagrophytes; test: Antidermatophyte plaque growth inhibition; assay type: cell-based; conditions: read-out: Percent growth inhibition
[7] = tested on: Respiratory syncytial virus; test: microbe, parasite or virus in culture; assay type: cell-based; conditions: human respiratory syncytial virus, HeLa cells, read-out: Antiviral EC50
Coxsackie virus B4 = test: Antiviral activity in HeLa cell cultures (CPE, MTS); assay type: cell-based; conditions: Enterovirus B; Coxsackie virus B4, HeLa cells
[8] = tested on: vesicular stomatitis virus; test: microbe, parasite or virus in culture; assay type: cell-based; conditions: HeLa, read-out: Antiviral EC50
[9] = tested on: human pancreatic carcinoma cells (Mia Paca-2); test: Cell proliferation inhibition
vaccinia virus = test: microbe, parasite or virus in culture; assay type: cell-based; conditions: Orthopoxvirus vaccinia, HEL, read-out: Antiviral EC50
[10] = tested on: human embryonic lung (HEL) cell cultures
Human Coronavirus (229E) = test: microbe, parasite or virus in culture; assay type: cell-based; conditions: HEL, read-out: Antiviral EC50
[11] = tested on: herpes simplex virus-2 (G); test: Antiviral activity in HEL cell cultures (CPE, MTS); assay type: cell-based; conditions: Human alphaherpesvirus 2; Herpes simplex virus-2, HEL cells
[12] = tested on: HEK293T (Normal Kidney Epithelial Cells); test: Cell proliferation inhibition, non-cancer control cells; conditions: Homo sapiens, HEK-293T
[13] = tested on: human melanoma cells (SK-Mel 5); test: Cell proliferation inhibition
HeLa cell cultures = conditions: human
[14] = tested on: human T-lymphocyte cells (CEM); test: Cell proliferation inhibition
[15] = tested on: human cervical carcinoma cells (HeLa); test: Cell proliferation inhibition
[16] = tested on: herpes simplex virus-1 TK-KOS ACVr; test: microbe, parasite or virus in culture; assay type: cell-based; conditions: Human alphaherpesvirus 1, HEL, read-out: Antiviral EC50
Adeno virus-2 = test: Antiviral activity in HEL cell cultures (CPE, MTS); assay type: cell-based; conditions: Adeno virus-2, HEL cells
[17] = tested on: herpes simplex virus-1 (KOS); test: Antiviral activity in HEL cell cultures (CPE, MTS); assay type: cell-based; conditions: Human alphaherpesvirus 1, HEL cells

O=S(=O)(O)c1ccc2[nH]c(-c3ccccc3)nc2c1 [PBSA, 2-phenyl-1H-benzimidazole-5-sulphonic acid, reference compound]
inhibition at 100 µg/mL (Epidermophyton floccosum): 7.41 ± 0.43%
FRAP [1]: <LOQ *
inhibition at 100 µg/mL (Microsporum canis): < 0%
DPPH (% Inhibition) [2]: <LOQ *
inhibition at 100 µg/mL (Microsporum gypseum): 9.62 ± 0.61%
SPF ([3]; 1% in formulation): 3.22
UVA/UVB ([3]; 1% in formulation): 0.33
UVAPF ([3]; 1% in formulation): 0.94
λc ([3]; 1% in formulation): 319 nm
SPF ([3]; 2% in formulation): 4.63
UVA/UVB ([3]; 2% in formulation): 0.22
UVAPF ([3]; 2% in formulation): 0.94
λc ([3]; 2% in formulation): 321 nm
SPF ([3]; 3% in formulation): 5.09
UVA/UVB ([3]; 3% in formulation): 0.25
UVAPF ([3]; 3% in formulation): 1.02
λc ([3]; 3% in formulation): 324 nm
SPF [4]: 3.40±0.17
UVA/UVB [4]: 0.29
UVAPF [4]: 1.03±0.08
λc (critical wavelength) [4]: 322 nm
Activity on dermatophytes (in words) [5]: no activity on dermatophytes
inhibition at 100 µg/mL (Trichophyton tonsurans): < 0%
inhibition at 100 µg/mL [6]: < 0%

NC(=O)c1ncn([C@@H]2O[C@H](CO)[C@@H](O)[C@H]2O)n1 [Ribaravin, ribavirin, reference compound]
EC50 [7]: 10 µM
EC50 (Coxsackie virus B4): 250 µM
EC50 [8]: 112 µM

O=S(=O)(O)c1ccc2[nH]c(-c3ccco3)nc2c1 [Compound 8, 2-(furan-2-yl)-1H-benzimidazole-5-sulfonic Acid]
IC50 [9]: ≥ 100 µM
inhibition at 100 µg/mL (Epidermophyton floccosum; E. floccosum, 100 µg/mL, '+' has no key): < 0%
FRAP [1]: <LOQ *
EC50 (vaccinia virus): > 100 µM
inhibition at 100 µg/mL (Microsporum canis; M. canis, 100 µg/mL, '+' has no key): < 0%
EC50 [7]: > 100 µM
DPPH (% Inhibition) [2]: 10.96 ± 0.56%
inhibition at 100 µg/mL (Microsporum gypseum; M. gypseum, 100 µg/mL, '+' has no key): 8 ± 2.44%
Cytotoxic concentration [10]: > 100 µM
EC50 (Human Coronavirus (229E)): > 100 µM
EC50 [11]: > 100 µM
IC50 [12]: > 100 µM
SPF [4]: 10.96±0.54
UVA/UVB [4]: 0.29
UVAPF [4]: 1.33±0.05
λc (critical wavelength) [4]: 342 nm
IC50 [13]: ≥ 100 µM
Cytotoxic concentration (HeLa cell cultures): > 100 µM
melting point: > 250 °C
IC50 [14]: > 100 µM
EC50 (Coxsackie virus B4): > 100 µM
IC50 [15]: ≥ 100 µM
EC50 [16]: > 100 µM
EC50 (Adeno virus-2): > 100 µM
EC50 [8]: > 100 µM
inhibition at 100 µg/mL (Trichophyton tonsurans; T. tonsurans, 100 µg/mL, '+' has no key): < 0%
EC50 [17]: > 100 µM
inhibition at 100 µg/mL ([6]; T. mentagrophytes, 100 µg/mL, '+' has no key): < 0%
